These results are taken from patent US10953027B2, “Active agents and methods of their use for the treatment of metabolic disorders and nonalcoholic fatty liver disease” (Flagship Pioneering Innovations V, Inc., priority 2018, dated 2021).

A short description of data set [1]: Assay 1. Stability in Simulated Gastric Fluid (SGF). In kind it is in vitro ADME. The conditions noted are these: 1 μM, 37° C., SGF pH 1.6 with pepsin. Here is the method:
Assay 1. Stability of acylated active agents in Simulated Gastric Fluid (SGF). This assay was used to assess the stability of an acylated active agent in a stomach.
Medium was prepared by dissolving 2 g of sodium chloride in 0.6 L of ultrapure water (MilliQ®, Millipore Sigma, Darmstadt, Germany). The pH was adjusted to 1.6 with 1N hydrochloric acid, and the volume was then adjusted to 1 L with purified water.
60 mg FaSSIF powder (Biorelevant™, London, UK) were dissolved in 500 mL buffer (above). Pepsin was added (0.1 mg/mL) (Millipore Sigma, Darmstadt, Germany), and the solution was stirred. The resulting SGF media were used fresh for each experiment.
Test compounds were dissolved in DMSO stock to 1 mM. An aliquot of the DMSO stock solution was removed and diluted in the SGF Media in 15 mL falcon tubes to generate a compound concentration of 1 μM. A 1 mL aliquot was immediately removed and diluted once with 1 volume of acetonitrile for T0 timepoint. The mixture was sealed and mixed at 37° C. in an incubator. Aliquots (1 mL) were removed at regular intervals and immediately quenched by the addition of 1 volume of acetonitrile. The resulting samples were analyzed by LC/MS to determine degradation rates in SGF.

Data set [2] in a line: Assay 2. Stability in Simulated Intestinal Fluid (SIF). In kind it is in vitro ADME. The conditions noted are these: 1 μM, 37° C., SIF pH 6.7 with pancreatin. Here is the method:
Assay 2. Stability of acylated active agents in Simulated Intestinal Fluid (SIF). This assay was used to assess the stability of an acylated active agent in a small intestine.
Phosphate buffer was prepared by dissolving 0.42 g of sodium hydroxide pellets and 3.95 g of monobasic sodium phosphate monohydrate and 6.19 g of sodium chloride in ultrapure water (MilliQ®, Millipore Sigma, Darmstadt, Germany). The pH was adjusted to 6.7 using aq. HCl and aq. NaOH, as necessary, and the solution was diluted with ultrapure water to produce 1 L of the pH 6.7 buffer.
112 mg FaSSIF powder (Biorelevant™, London, UK) was dissolved in 50 mL of the pH 6.7 buffer. 2 to 3 mL of the resulting solution were then added to 500 mg pancreatin (Millipore Sigma, Darmstadt, Germany). The resulting mixture was agitated by finger tapping the vessel containing the mixture until milky suspension formed. At this time, the remainder of the 50 mL FaSSiF/pH 6.7 buffer solution was added. The resulting suspension was flipped upside down 10 times to produce SIF, which was used fresh.
Test compounds were dissolved in DMSO stock to 1 mM. An aliquot of the DMSO stock solution was removed and diluted in the SIF media in 15 mL falcon tubes to produce a mixture with a tested compound concentration of 1 μM. A 1 mL aliquot was immediately removed and diluted once with 1 volume of acetonitrile for T0 timepoint. The mixture was sealed and agitated at 37° C. in an incubator. Aliquots (1 mL) were removed at regular intervals and immediately quenched by the addition of 1 volume of acetonitrile. The resulting samples were analyzed by LC/MS to determine degradation rates.

Take `CC(=O)Oc1cc(OC(C)=O)c2c(=O)c(OC(C)=O)c(-c3cc(OC(C)=O)c(OC(C)=O)c(OC(C)=O)c3)oc2c1` [Compound 23, [3,5-diacetoxy-4-oxo-2-(3,4,5-triacetoxyphenyl)chromen-7-yl] acetate]: the “Assay 1 (SGF) (% Remaining @ 1 hours)” value in data set [1] is “C (C: >75% of the tested compound remaining)”. Moreover, the “Assay 2 (SIF) (% @ Remaining 4 hours)” value in data set [2] is given as “A (A: <25% of the tested compound remaining)”.

`CCC(=O)OCC[C@@H](C)OC(=O)Oc1ccc(/C=C/c2cc(OC(=O)O[C@H](C)CCOC(=O)CC)cc(OC(=O)O[C@H](C)CCOC(=O)CC)c2)cc1` [Compound 76, (3R,3′R)-((((5-((E)-4-(((((R)-4-(propionyloxy)butan-2-yl)oxy)carbonyl)oxy)styryl)-1,3-phenylene)bis(oxy))bis(carbonyl))bis(oxy))bis(butane-3,1-diyl) dipropionate]: in data set [1], the “Assay 1 (SGF) (% Remaining @ 1 hours)” value is given as “B (B: 25-75% of the tested compound remaining)”. For the same molecule, in data set [2], the “Assay 2 (SIF) (% @ Remaining 4 hours)” value was “A (A: <25% of the tested compound remaining)”.

In the case of `CCCC(=O)O[C@@H]1[C@@H](OC(=O)CCC)[C@@H](OC(=O)CCc2c[nH]c3ccccc23)OC[C@@H]1OC(=O)CCC` [Compound 114, (2R,3R,4S,5S)-4,5-bis(butanoyloxy)-2-{[3-(1H-indol-3-yl)propanoyl]oxy}oxan-3-yl Butanoate], the “Assay 1 (SGF) (% Remaining @ 1 hours)” value in data set [1] is recorded as “B (B: 25-75% of the tested compound remaining)”. Moreover, the “Assay 2 (SIF) (% @ Remaining 4 hours)” value in data set [2] is “A (A: <25% of the tested compound remaining)”.

For `O=C(CCc1c[nH]c2ccccc12)O[C@H]1OC[C@@H](OC(=O)CCc2c[nH]c3ccccc23)[C@@H](OC(=O)CCc2c[nH]c3ccccc23)[C@H]1OC(=O)CCc1c[nH]c2ccccc12` [Compound 182, (2R,3R,4R,5R)-3,4,5-tris({[3-(1H-indol-3-yl)propanoyl]oxy})oxan-2-yl 3-(1H-indol-3-yl)propanoate], the “Assay 1 (SGF) (% Remaining @ 1 hours)” value in data set [1] is recorded as “C (C: >75% of the tested compound remaining)”. In addition, in data set [2], the “Assay 2 (SIF) (% @ Remaining 4 hours)” value was “A (A: <25% of the tested compound remaining)”.

On to `O=C(CCc1c[nH]c2ccccc12)Oc1cc(C(=O)O)cc(OC(=O)CCc2c[nH]c3ccccc23)c1OC(=O)CCc1c[nH]c2ccccc12` [Compound 240, 3,4,5-tris({[3-(1H-indol-3-yl)propanoyl]oxy})benzoic Acid], for which, in data set [1], the “Assay 1 (SGF) (% Remaining @ 1 hours)” value is on record as “A (A: <25% of the tested compound remaining)”. For the same molecule, the “Assay 2 (SIF) (% @ Remaining 4 hours)” value in data set [2] was “C (C: >75% of the tested compound remaining)”.

Regarding `CCC(=O)Oc1ccc2c(c1)oc(=O)c1cc(OC(=O)CC)c(OC(=O)CC)cc12` [Compound 242, [6-oxo-8,9-di(propanoyloxy)benzo[c]chromen-3-yl] propanoate], the “Assay 1 (SGF) (% Remaining @ 1 hours)” value in data set [1] was “C (C: >75% of the tested compound remaining)”. The “Assay 2 (SIF) (% @ Remaining 4 hours)” value in data set [2] is recorded as “A (A: <25% of the tested compound remaining)”.

With `C=C1CC[C@H](OC(=O)[C@H](OC(=O)CCC)[C@@H](OC(=O)CCC)[C@H](OC(=O)CCC)[C@@H](COC(=O)CCC)OC(=O)CCC)C/C1=C/C=C1\CCC[C@]2(C)[C@@H]([C@H](C)CCCC(C)C)CC[C@@H]12` [Compound 67, [(1 S,3Z)-3-[(2E)-2-[(1R,3aS,7aR)-1-[(1R)-1,5-dimethylhexyl]-7a-methyl-2,3,3a,5,6,7-hexahydro-1H-inden-4-ylidene]ethylidene]-4-methylene-cyclohexyl] (2R,3S,4R,5R)-2,3,4,5,6-penta(butanoyloxy)hexanoate], the “Assay 1 (SGF) (% Remaining @ 1 hours)” value in data set [1] is reported as “B (B: 25-75% of the tested compound remaining)”. In addition, the “Assay 2 (SIF) (% @ Remaining 4 hours)” value in data set [2] is “A (A: <25% of the tested compound remaining)”.

As for `CCC(=O)O[C@@H]1[C@@H](OC(=O)CC)[C@@H](OC(=O)CC)CO[C@H]1O` [Compound 159, (3S,4S,5R,6R)-6-hydroxy-4,5-bis(propanoyloxy)oxan-3-yl Propanoate], in data set [1], the “Assay 1 (SGF) (% Remaining @ 1 hours)” value was “C (C: >75% of the tested compound remaining)”. The “Assay 2 (SIF) (% @ Remaining 4 hours)” value in data set [2] is given as “B (B: 25-75% of the tested compound remaining)”.

Take `CCCC(=O)O[C@@H]1[C@@H](OC(=O)CCC)[C@@H](Oc2ccc(N)cc2C(=O)O)OC[C@H]1OC(=O)CCC` [Compound 33, 5-amino-2-[(2R,3R,4S,5R)-3,4,5-tri(butanoyloxy)tetrahydropyran-2-yl]oxy-benzoic Acid]: the “Assay 1 (SGF) (% Remaining @ 1 hours)” value in data set [1] is reported as “C (C: >75% of the tested compound remaining)”. Also, the “Assay 2 (SIF) (% @ Remaining 4 hours)” value in data set [2] is recorded as “C (C: >75% of the tested compound remaining)”.

As for `C[C@@H]1CCOC(C)(C(=O)Oc2ccc(/C=C/c3cc(OC(=O)C4(C)OCC[C@@H](C)O4)cc(OC(=O)C4(C)OCC[C@@H](C)O4)c3)cc2)O1` (stereo partly drawn) [Compound 65, [4-[(E)-2-[3,5-bis[[(4R)-2,4-dimethyl-1,3-dioxane-2-carbonyl]oxy]phenyl]vinyl]phenyl] (4R)-2,4-dimethyl-1,3-dioxane-2-carboxylate], in data set [1], the “Assay 1 (SGF) (% Remaining @ 1 hours)” value was “C (C: >75% of the tested compound remaining)”. The “Assay 2 (SIF) (% @ Remaining 4 hours)” value in data set [2] is listed as “C (C: >75% of the tested compound remaining)”.

As to `CCCC(=O)O[C@@H]1[C@@H](OC(=O)CCC)[C@H](Oc2ccc(N)cc2C(=O)O)OC[C@H]1OC(=O)CCC` [Compound 34, 5-amino-2-[(2S,3R,4S,5R)-3,4,5-tri(butanoyloxy)tetrahydropyran-2-yl]oxy-benzoic Acid], the “Assay 1 (SGF) (% Remaining @ 1 hours)” value in data set [1] is listed as “C (C: >75% of the tested compound remaining)”. Moreover, the “Assay 2 (SIF) (% @ Remaining 4 hours)” value in data set [2] is on record as “C (C: >75% of the tested compound remaining)”.

In the case of `Cc1c(C)c2c(c(C)c1OC(=O)C1OCC[C@@H](C)O1)CC[C@@](C)(CCC[C@H](C)CCC[C@H](C)CCCC(C)C)O2` (stereo partly drawn) [Compound 66, [(2R)-2,5,7,8-tetramethyl-2-[(4R,8R)-4,8,12-trimethyltridecyl]chroman-6-yl] (4R)-4-methyl-1,3-dioxane-2-carboxylate], in data set [1], the “Assay 1 (SGF) (% Remaining @ 1 hours)” value is given as “C (C: >75% of the tested compound remaining)”. Besides, the “Assay 2 (SIF) (% @ Remaining 4 hours)” value in data set [2] is listed as “A (A: <25% of the tested compound remaining)”.

As to `CCC(=O)O[C@H]1[C@H](OC(=O)CC)[C@H](OC(=O)Cc2c[nH]c3ccccc23)O[C@@H](C)[C@H]1OC(=O)CC` [Compound 150, (2S,3S,4R,5R,6S)-2-{[2-(1H-indol-3-yl)acetyl]oxy}-6-methyl-4,5-bis(propanoyloxy)oxan-3-yl Propanoate], the “Assay 1 (SGF) (% Remaining @ 1 hours)” value in data set [1] is on record as “C (C: >75% of the tested compound remaining)”. In data set [2], the “Assay 2 (SIF) (% @ Remaining 4 hours)” value was “A (A: <25% of the tested compound remaining)”.

Regarding `CC(=O)Oc1cc(C(=O)O)cc(OC(C)=O)c1OC(C)=O` [Compound 44, 3,4,5-triacetoxybenzoic Acid], in data set [1], the “Assay 1 (SGF) (% Remaining @ 1 hours)” value was “C (C: >75% of the tested compound remaining)”. The “Assay 2 (SIF) (% @ Remaining 4 hours)” value in data set [2] is listed as “B (B: 25-75% of the tested compound remaining)”.

As to `CC(=O)OCC[C@@H](C)OC(=O)Oc1ccc(/C=C/c2cc(OC(=O)O[C@H](C)CCOC(C)=O)cc(OC(=O)O[C@H](C)CCOC(C)=O)c2)cc1` [Compound 24, [(3R)-3-[4-[(E)-2-[3,5-bis[[(1R)-3-acetoxy-1-methyl-propoxy]carbonyloxy]phenyl]vinyl]phenoxy]carbonyloxybutyl] acetate], the “Assay 1 (SGF) (% Remaining @ 1 hours)” value in data set [1] is reported as “C (C: >75% of the tested compound remaining)”. In addition, the “Assay 2 (SIF) (% @ Remaining 4 hours)” value in data set [2] was “A (A: <25% of the tested compound remaining)”.

In the case of `CCC(=O)O[C@@H]1[C@H](OC(=O)CC)[C@H](C)OC(O)[C@H]1OC(=O)CC` (stereo partly drawn) [Compound 156, (3S,4R,5R,6S)-2-hydroxy-6-methyl-4,5-bis(propanoyloxy)oxan-3-yl Propanoate], the “Assay 1 (SGF) (% Remaining @ 1 hours)” value in data set [1] is “C (C: >75% of the tested compound remaining)”. The “Assay 2 (SIF) (% @ Remaining 4 hours)” value in data set [2] is “A (A: <25% of the tested compound remaining)”.

As to `CCCC(=O)O[C@H]1[C@@H](OC(=O)CCC)COC(O)[C@@H]1OC(=O)CCC` (stereo partly drawn) [Compound 72, (3R,4S,5S)-2-hydroxytetrahydro-2H-pyran-3,4,5-triyl Tributyrate], in data set [1], the “Assay 1 (SGF) (% Remaining @ 1 hours)” value is reported as “C (C: >75% of the tested compound remaining)”. Moreover, in data set [2], the “Assay 2 (SIF) (% @ Remaining 4 hours)” value is “A (A: <25% of the tested compound remaining)”.
